Consider one compound from patent US11572590B2, “Methods for evaluating tumor cell spheroids using 3D microfluidic cell culture device” (Dana-Farber Cancer Institute, Inc., priority 2017, dated 2023).

Like-named read-outs stand apart in the source and are kept apart here.

Experiment in all cases: SelectScreen Kinase Profiling, single point inhibition and IC50 for off-target kinases
Type in all cases: biochemical

Test [1] addresses off-target kinases (Homo sapiens, UniProt P00519, Y253F). The conditions noted are these: ABL1 Y253F, ATP Km app, ZLYTE.
Test [2] has as its target off-target kinases (Homo sapiens, UniProt P78527).
Test [3] addresses T1, off-target kinases (Homo sapiens, UniProt P29323).
T1 sequence (P29323 19-1055): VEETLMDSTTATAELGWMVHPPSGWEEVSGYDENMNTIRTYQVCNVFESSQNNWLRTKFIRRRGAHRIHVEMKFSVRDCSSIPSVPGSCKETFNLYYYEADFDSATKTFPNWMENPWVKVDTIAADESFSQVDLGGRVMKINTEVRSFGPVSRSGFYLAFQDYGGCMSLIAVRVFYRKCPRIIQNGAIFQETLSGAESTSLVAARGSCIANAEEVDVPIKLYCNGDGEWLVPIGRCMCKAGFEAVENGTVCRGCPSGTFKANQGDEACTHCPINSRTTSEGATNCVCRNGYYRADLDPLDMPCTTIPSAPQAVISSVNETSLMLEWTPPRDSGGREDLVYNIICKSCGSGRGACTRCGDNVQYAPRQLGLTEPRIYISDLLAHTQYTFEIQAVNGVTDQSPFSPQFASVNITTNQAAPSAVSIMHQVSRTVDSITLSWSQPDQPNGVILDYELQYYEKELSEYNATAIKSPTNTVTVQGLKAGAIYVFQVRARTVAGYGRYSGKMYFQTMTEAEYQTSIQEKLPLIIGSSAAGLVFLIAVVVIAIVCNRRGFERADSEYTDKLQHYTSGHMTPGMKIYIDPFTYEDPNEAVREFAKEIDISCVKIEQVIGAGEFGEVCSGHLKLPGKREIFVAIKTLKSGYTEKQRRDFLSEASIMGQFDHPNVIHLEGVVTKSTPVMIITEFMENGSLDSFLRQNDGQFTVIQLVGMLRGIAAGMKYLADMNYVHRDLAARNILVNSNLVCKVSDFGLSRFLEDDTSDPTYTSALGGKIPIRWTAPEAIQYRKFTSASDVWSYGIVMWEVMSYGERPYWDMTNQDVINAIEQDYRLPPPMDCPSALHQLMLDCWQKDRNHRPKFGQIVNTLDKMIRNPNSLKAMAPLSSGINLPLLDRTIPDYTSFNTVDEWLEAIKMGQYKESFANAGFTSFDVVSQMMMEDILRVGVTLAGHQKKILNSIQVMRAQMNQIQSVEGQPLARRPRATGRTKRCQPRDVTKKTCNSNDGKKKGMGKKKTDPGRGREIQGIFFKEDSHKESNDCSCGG
The conditions noted are these: EPHB2, ZLYTE, ATP Km app.

Test [4] concerns the target off-target kinases (Homo sapiens, UniProt O00311). The settings on record: CDC7/DBF4, LanthaScreen Binding. (TR-FRET usually uses a lanthanide donor and a delayed reading to cut background.)
The target in test [5] is off-target kinases (Homo sapiens, UniProt P68400). The conditions noted are these: CSNK2A1 (CK2 alpha 1), ZLYTE, ATP Km app.
off-target kinases (Homo sapiens, UniProt P68400), sequence (P68400 whole entry): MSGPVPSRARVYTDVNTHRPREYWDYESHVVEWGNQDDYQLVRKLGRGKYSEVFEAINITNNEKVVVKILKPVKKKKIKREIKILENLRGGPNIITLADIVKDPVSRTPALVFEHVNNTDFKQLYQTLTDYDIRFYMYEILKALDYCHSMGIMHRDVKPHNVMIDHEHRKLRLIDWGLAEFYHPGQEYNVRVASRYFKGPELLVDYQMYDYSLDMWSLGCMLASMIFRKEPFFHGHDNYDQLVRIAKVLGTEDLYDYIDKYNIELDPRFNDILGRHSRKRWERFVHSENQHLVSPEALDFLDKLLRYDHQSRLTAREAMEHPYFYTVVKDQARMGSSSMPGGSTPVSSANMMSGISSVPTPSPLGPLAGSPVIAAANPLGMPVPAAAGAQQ
Test [6] concerns the target off-target kinases (Homo sapiens, UniProt O75116). The settings on record: ROCK2, ZLYTE, ATP Km app.
Test [7] has as its target off-target kinases (Homo sapiens, UniProt P15056). The settings on record: BRAF; for inhibition: LanthaScreen Binding.

off-target kinases (Homo sapiens, UniProt P78527), sequence (P78527 whole entry): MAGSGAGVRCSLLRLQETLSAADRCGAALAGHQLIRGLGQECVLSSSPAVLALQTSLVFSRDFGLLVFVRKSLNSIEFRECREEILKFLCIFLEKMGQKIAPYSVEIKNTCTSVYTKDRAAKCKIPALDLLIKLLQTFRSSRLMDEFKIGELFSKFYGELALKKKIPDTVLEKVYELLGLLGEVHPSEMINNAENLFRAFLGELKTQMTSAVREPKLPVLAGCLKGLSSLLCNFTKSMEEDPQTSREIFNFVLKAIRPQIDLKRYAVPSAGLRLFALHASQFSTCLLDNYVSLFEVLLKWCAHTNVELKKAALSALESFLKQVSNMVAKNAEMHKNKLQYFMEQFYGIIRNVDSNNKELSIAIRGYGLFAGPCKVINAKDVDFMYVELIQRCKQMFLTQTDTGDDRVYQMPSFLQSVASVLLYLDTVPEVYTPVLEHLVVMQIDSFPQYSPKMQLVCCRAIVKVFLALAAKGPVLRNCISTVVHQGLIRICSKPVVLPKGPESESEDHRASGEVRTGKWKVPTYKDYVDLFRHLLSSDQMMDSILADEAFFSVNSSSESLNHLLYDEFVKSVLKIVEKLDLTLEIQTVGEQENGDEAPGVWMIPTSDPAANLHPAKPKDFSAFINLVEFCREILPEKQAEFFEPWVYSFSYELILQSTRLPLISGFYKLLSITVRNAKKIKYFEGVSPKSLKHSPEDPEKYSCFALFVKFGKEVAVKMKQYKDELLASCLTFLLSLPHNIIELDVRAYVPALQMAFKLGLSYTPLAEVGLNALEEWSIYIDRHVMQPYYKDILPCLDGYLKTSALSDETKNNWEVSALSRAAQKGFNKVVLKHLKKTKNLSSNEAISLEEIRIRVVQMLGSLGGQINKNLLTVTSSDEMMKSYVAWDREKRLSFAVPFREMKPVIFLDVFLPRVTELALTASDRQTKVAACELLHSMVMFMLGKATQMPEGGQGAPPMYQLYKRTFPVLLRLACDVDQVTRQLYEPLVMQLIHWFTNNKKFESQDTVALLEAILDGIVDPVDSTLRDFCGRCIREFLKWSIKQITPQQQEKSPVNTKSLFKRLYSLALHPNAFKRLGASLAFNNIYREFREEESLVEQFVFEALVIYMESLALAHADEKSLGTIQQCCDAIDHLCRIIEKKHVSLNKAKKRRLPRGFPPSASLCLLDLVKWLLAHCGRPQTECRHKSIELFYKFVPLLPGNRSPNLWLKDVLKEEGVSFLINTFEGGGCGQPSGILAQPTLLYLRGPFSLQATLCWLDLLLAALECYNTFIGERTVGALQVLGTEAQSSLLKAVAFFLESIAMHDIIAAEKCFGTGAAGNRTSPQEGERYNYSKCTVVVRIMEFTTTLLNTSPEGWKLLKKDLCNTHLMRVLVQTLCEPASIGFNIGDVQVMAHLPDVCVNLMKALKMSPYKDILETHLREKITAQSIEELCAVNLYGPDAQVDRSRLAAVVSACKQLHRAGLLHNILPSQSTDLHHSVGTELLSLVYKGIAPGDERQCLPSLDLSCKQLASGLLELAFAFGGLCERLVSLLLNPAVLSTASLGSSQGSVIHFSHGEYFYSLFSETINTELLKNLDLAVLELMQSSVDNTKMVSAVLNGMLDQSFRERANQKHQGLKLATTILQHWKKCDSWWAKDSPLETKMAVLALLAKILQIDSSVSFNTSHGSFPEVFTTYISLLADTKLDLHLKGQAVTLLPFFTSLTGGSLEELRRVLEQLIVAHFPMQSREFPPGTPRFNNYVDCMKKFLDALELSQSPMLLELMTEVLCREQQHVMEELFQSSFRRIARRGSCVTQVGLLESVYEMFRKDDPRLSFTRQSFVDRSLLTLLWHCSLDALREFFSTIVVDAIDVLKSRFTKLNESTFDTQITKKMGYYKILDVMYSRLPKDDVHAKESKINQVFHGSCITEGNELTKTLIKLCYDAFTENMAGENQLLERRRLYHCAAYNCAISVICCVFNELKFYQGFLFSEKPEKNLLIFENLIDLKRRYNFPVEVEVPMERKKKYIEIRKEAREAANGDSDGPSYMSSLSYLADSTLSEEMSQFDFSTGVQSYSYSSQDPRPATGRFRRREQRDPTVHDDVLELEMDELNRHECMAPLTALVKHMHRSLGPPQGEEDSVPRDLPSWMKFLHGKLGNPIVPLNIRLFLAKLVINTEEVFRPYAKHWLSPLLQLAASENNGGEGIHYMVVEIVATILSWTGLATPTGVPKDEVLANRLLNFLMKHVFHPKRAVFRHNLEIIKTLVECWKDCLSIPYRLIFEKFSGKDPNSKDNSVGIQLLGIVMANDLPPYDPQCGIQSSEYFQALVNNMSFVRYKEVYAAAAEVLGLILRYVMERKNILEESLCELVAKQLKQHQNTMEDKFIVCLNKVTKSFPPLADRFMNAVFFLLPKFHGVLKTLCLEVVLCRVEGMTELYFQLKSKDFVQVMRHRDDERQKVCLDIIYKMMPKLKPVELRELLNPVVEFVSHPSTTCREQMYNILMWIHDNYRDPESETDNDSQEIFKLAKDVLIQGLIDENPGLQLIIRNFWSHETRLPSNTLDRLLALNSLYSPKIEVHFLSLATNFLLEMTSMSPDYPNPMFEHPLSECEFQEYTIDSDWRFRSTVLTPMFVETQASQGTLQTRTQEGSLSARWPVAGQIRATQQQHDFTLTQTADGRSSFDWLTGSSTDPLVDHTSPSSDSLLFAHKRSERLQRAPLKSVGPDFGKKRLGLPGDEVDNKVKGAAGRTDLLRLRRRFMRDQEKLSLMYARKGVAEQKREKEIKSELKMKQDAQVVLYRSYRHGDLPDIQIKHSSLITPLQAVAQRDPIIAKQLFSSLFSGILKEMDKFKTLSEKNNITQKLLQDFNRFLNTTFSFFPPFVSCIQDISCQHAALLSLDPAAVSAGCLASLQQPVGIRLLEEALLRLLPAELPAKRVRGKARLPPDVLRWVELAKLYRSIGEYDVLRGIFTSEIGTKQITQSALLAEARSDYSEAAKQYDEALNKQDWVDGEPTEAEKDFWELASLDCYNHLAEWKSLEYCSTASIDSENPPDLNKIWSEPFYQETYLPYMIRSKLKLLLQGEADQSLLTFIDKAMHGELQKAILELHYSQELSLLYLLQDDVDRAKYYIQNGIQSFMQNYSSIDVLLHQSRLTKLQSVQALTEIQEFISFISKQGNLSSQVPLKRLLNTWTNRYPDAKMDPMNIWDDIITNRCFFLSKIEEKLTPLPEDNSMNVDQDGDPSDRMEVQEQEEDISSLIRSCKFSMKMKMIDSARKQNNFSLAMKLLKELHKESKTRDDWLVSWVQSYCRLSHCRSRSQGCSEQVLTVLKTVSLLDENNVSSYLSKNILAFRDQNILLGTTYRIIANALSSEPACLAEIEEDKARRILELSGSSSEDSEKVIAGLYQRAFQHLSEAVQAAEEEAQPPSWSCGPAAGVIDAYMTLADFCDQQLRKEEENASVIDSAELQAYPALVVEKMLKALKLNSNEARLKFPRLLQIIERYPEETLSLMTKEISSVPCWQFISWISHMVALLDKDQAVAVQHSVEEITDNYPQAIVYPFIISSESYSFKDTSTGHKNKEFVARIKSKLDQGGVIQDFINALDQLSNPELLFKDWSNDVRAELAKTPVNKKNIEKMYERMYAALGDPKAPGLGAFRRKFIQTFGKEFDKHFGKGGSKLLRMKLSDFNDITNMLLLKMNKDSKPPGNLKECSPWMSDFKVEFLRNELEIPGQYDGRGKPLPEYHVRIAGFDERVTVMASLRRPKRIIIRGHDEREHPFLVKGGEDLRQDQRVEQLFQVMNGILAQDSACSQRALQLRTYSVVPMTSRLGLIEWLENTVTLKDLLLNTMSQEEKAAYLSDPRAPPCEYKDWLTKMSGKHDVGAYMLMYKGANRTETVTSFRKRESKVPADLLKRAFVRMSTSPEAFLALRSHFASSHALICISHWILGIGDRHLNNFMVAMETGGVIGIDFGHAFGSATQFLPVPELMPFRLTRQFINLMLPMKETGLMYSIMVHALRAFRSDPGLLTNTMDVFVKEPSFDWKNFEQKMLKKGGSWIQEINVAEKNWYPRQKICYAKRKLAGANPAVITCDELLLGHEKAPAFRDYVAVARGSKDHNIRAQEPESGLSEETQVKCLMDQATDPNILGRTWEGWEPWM
off-target kinases (Homo sapiens, UniProt O00311), sequence (O00311 whole entry): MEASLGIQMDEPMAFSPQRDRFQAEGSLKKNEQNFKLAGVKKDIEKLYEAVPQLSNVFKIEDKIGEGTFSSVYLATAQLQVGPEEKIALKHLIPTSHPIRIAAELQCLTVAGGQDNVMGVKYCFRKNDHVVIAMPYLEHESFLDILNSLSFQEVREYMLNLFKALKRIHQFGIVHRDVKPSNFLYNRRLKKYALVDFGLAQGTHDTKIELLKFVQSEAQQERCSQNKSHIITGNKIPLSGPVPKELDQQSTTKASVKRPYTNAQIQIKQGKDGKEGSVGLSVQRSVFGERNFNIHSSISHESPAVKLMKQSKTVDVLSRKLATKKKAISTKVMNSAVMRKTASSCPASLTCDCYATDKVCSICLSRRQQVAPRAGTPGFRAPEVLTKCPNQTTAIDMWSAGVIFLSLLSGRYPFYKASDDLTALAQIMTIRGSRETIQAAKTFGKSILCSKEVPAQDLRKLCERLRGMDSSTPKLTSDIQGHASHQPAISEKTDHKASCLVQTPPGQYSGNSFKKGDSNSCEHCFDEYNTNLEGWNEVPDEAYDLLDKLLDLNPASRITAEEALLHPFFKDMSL

Broadly, the inhibition is the change of the read-out against control, counted positive when it falls. Take `N#Cc1cc(-c2ncnc(Nc3ccc(N4CCN(C5COC5)CC4)cc3)n2)ccc1OC1CCOCC1` [Compound 1, 5-(4-((4-(4-(oxetan-3-yl)piperazin-1-yl)phenyl)amino)-1,3,5-triazin-2-yl)-2-((tetrahydro-2H-pyran-4-yl)oxy)benzonitrile]: the inhibition on off-target kinases [1] (read-out: % Inhibition 1) was 61%; on off-target kinases [1] (read-out: % Inhibition 2), 48%; on off-target kinases [1] (read-out: % Inhibition Avg), 54%; at off-target kinases [2] (DNA-PK, ZLYTE, ATP Km app, read-out: % Inhibition 1), 2%; at off-target kinases [2] (DNA-PK, ZLYTE, ATP Km app, read-out: % Inhibition 2), -4%; at off-target kinases [2] (read-out: % Inhibition Avg), -1%. For the same compound, the inhibition came to 14% on off-target kinases [3] (read-out: % Inhibition 1); 17% on off-target kinases [3] (read-out: % Inhibition 2); 16% at off-target kinases [3] (read-out: % Inhibition Avg); 100% at off-target kinases [4] (read-out: % Inhibition 1); 97% on off-target kinases [4] (read-out: % Inhibition 2); 98% on off-target kinases [4] (read-out: % Inhibition Avg). Besides, the inhibition on off-target kinases [5] (read-out: % Inhibition 1) came to 13%; on off-target kinases [5] (read-out: % Inhibition 2), 7%; at off-target kinases [5] (read-out: % Inhibition Avg), 10%; at off-target kinases [6] (read-out: % Inhibition 1), 12%; on off-target kinases [6] (read-out: % Inhibition 2), 14%; at off-target kinases [6] (read-out: % Inhibition Avg), 13%. Further, the inhibition came out at 44% on off-target kinases [7] (read-out: % Inhibition 1), 47% on off-target kinases [7] (read-out: % Inhibition 2) and 46% on off-target kinases [7] (read-out: % Inhibition Avg). Besides, the “% Inhibition 1” value at off-target kinases [7] (Cmpd1 1000 μM, ATP 100, ZLYTE) is given as −18%. Also, on off-target kinases [7] (Cmpd1 1000 μM, ATP 100, ZLYTE), the “% Inhibition 2” value was −10%. In addition, the “% Inhibition Avg” value at off-target kinases [7] (Cmpd1 1000 μM, ATP 100, ZLYTE) is −14%.
